Data: the NIST ThermoML archive (doi:10.1016/j.fluid.2014.10.015)

Assay: molar heat capacity at constant pressure
Settings: 101.33 kPa, Liquid, Small sample (50 mg) DSC

CC(=O)[O-].CCCCn1cc[n+](C)c1 [1-butyl-3-methylimidazolium acetate]
Settings	molar heat capacity at constant pressure [J/K/mol]
253.15 K	359.54
258.15 K	361.57
263.15 K	363.69
268.15 K	365.9
273.15 K	368.21
278.15 K	370.61
283.15 K	373.1
293.15 K	378.36
298.15 K	381.12
303.15 K	383.98
313.15 K	389.98
323.15 K	396.35
333.15 K	403.09
343.15 K	410.2
353.15 K	417.68
363.15 K	425.53
373.15 K	433.75
383.15 K	442.34
393.15 K	451.3
403.15 K	460.63
413.15 K	470.33
